Results from US8686224B2, “Plant defense signal peptides” (priority 2005, dated 2014).

Tests used:
[1] = target: T1, AtPep1 receptor (At1g73080, AtPEPR1) (Arabidopsis thaliana, UniProt Q9SSL9); assay: Binding assay of 125I1-Tyr-AtPep1 with Arabidopsis suspension cultured cells
T1 sequence (Q9SSL9 29-1123): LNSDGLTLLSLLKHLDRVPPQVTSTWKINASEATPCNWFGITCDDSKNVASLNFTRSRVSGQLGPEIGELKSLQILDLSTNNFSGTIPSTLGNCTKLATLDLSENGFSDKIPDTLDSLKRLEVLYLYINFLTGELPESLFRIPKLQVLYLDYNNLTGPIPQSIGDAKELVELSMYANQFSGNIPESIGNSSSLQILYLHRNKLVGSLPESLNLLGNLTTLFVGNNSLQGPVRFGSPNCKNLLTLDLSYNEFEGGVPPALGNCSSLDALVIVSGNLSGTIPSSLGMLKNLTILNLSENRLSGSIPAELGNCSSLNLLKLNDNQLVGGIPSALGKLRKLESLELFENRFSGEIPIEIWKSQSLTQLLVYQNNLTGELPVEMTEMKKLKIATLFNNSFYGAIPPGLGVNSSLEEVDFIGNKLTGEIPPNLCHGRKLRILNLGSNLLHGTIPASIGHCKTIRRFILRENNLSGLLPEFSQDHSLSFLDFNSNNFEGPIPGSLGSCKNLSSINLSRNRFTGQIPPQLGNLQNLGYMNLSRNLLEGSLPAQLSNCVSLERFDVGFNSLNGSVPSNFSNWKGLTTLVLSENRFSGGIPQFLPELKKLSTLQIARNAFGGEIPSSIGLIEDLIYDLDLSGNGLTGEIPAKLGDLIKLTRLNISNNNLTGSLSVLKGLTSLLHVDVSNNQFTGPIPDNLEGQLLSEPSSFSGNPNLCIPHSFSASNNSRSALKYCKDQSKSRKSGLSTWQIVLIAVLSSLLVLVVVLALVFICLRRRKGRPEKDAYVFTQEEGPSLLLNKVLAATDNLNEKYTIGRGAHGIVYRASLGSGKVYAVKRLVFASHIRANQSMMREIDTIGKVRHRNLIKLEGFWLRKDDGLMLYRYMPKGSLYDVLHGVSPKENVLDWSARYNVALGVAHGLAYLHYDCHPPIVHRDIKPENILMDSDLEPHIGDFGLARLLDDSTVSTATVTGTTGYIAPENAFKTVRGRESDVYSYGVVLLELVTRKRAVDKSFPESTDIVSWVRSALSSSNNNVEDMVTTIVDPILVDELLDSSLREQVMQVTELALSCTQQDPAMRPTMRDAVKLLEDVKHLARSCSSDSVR
Experimental: Binding assays. […] The filtered cells were washed three times with 5 mL of cold MS medium containing 3% sucrose, suspended in 1 mL MS medium containing 3% sucrose in a glass test tube, and analyzed for total radioactivity in a gamma-ray counter (Isodata 2020; Isodata Inc., Palatine, Ill.).

[2] = tested on: Arabidopsis suspension cultured cells; assay: Alkalinization assay with Arabidopsis suspension cultured cells; assay type: cell-based, Arabidopsis thaliana; details: Arabidopsis suspension cultured cells, pH of media after 20 min
Experimental: For the alkalinization assay, cells suspensions are grown in a volume of 40 ml in a 125 ml flask. Tobacco and Arabidopsis cells are typically grown for 3-5 days before use. Tomato cells are typically grown for 4-7 days before use. Soybean cells are generally grown for 3-7 days before use. Preferably, cells are in mid to log or log phase when they are to be used for the alkalinization assay. A 1 ml pipette tip with the end cut off (to prevent clogging of the tip with the cells) is used to aliquot 1 ml of the cells from the suspension into a well in a 24-well culture cluster plate. The flask is swirled between aliquots to ensure that the cells remain evenly dispersed throughout the cell suspension and an roughly equivalent number of cells is provided to each well. The plate(s) are then shaken at 160 rpm for 1 hour. Small aliquots ([…]) of extracted peptide fractions are then added to the wells. After 20 min, the pH of the cell media is measured and recorded.
Alkalinization Assay. Arabidopsis suspension cells were grown with shaking in the dark in 125 mL flasks, using 40 mL NT media as previously described (Pearce et al. Proc. Natl. Acad. Sci. USA 98:12843-12847, 2001). The cells were transferred weekly (2.5 mL) and used for assays 3-5 days after transfer. One mL aliquots of cells were transferred to wells of 24-well culture plates and allowed to equilibrate for one hour while agitated on a rotary shaker at 160 rpm. Aliquots of 1-10 μL from extracts or fractions eluted from HPLC columns were added to cells and the pH of the media was monitored after 20 min.
Alkalinization assay. Medium alkalinization activity of Arabidopsis suspension cultured cells by AtPep1 analogs was analyzed as previously described for systemin (Pearce et al., Science 253:895-897, 1991), RALF (Pearce et al. Proc. Natl. Acad. Sci. USA 98:12843-12847, 2001), HypSys peptides (Pearce and Ryan. J. Biol. Chem. 278:30044-30050, 2003; Pearce et al., Nature 411:817-820, 2001), and AtPep1 (supra). The alkalinization activity of azido-Cys-AtPep1 were carried out after incubation the analog with cells in darkness for 10 min, when the pH was recorded.
Analogs of AtPep1 from the C-terminus of AtPep1 were synthesized and assayed in the alkalinization assay. One mL aliquots of 4 day old Arabidopsis cells were allowed to equilibrate on an orbital shaker at 180 rpm for one hour. A 10 μL aliquot of each peptide solution was added to the cells. Peptide concentrations of 0.25 nM, 2.5 nM, and 25 nM were tested. After 20 min, the pH of the media was recorded.
The 15-mer from the carboxy-terminus of AtPep1 ([…] (SEQ ID NO: 78)) was substituted with alanine at each position to assess which amino acids were necessary for the alkalinizing activity. […] The set of substituted 15-mer peptides was assayed using four-day-old Arabidopsis cells. […] of each peptide (2.5 pmoles) was added to 1 ml of cells to make a final concentration of 2.5 nM. After 20 min, the pH of the media was recorded. The data is the average of three separate experiments.

[3] = tested on: P. syringae pv. tomato DC3000 (Pst DC3000); assay: Pst DC3000 inoculation of Arabidopsis leaves with peptide pre-infiltration; assay type: in vivo, Pseudomonas syringae; details: wild type, cfu/cm^2 4 days after infection; AtPep1 10 nM solution
Text: The resistance to P. irregulare requires the JA signaling pathway in Arabidopsis (Staswick et al, Plant J. 15: 747-754, 1998), and AtPep peptides induced PDF1.2, a marker gene for the JA response (Huffaker et al., Proc. Natl. Acad. Sci. USA 103: 10098-10103, Huffaker and Ryan, Proc. Natl. Acad. Sci. USA 104: 10732-10736, 2007). […] In order to examine this possibility, Arabidopsis plants were inoculated with P. syringae pv. tomato DC3000 (Pst DC3000) with or without AtPep1 pre-infiltration. Pst DC3000 was extracted from the infected leaves 4 days after infection and colony forming units (cfu/cm^2) were calculated. […] The reduction of Pst DC3000 growth was also not observed when the double mutant, pepr1-1/pepr2-1, was pre-infiltrated with AtPep1. […] Pre-infiltration of AtPep2-6 also attenuated Pst DC3000 growth to different degrees.
To assess the importance of AtPEPR1 and AtPEPR2 in the resistance to Pst DC3000 after infiltration of AtPep1, T-DNA insertional mutants were inoculated. When 1 μM AtPep1 was infiltrated into leaves one day prior to Pst DC3000 inoculation, the size of the necrotic regions were reduced in both wild type and single mutant lines, pepr1-1 and pepr2-1. […] Similar results were obtained when another set of mutant lines, pepr1-2, pepr2-2 and pepr1-2/pepr2-2, was used.

[4] = tested on: AtproPep1 gene expression; assay: Hormone treatments of intact plants, RT-PCR of AtproPep1 and paralogs; assay type: in vivo, Arabidopsis thaliana
Experimental: Plant stress and hormone treatments. To examine effects of cold stress, plants were placed in a refrigerated growth chamber set to 2° C. To simulate drought stress conditions, plants grown under standard growth chamber conditions were grown without watering. Methyl jasmonate (Bedoukian Research Inc., Danbury Conn.) was applied as a 625 μM solution in 0.1% Triton X-100 to the upper surface of leaves and the plants were incubated in plexiglass boxes. Methyl salicylate (Sigma-Aldrich, St. Louis Mo.), was applied to leaf surfaces at 2 mM in a 0.1% Triton X-100 solution. Ethephon (Phytotechnology Laboratories, Shawnee Mission Kans.) was sprayed on plants as a 7 mM solution in 0.1% Triton X-100 (Sigma-Aldrich, St. Louis Mo.). ABA effects were analyzed by spraying plants with a 100 μM solution (mixed isomer, Sigma-Aldrich, St. Louis Mo.) in 0.1% Triton X-100 (Denekamp and Smeekens, Plant Physiol. 132, 1415-1423, 2003).
Semi-quantitative RT-PCR analysis of relative gene expression levels. RNA was isolated using Trizol reagent and manufacturer's instructions (Invitrogen. Carlsbad Calif.), and 2 μg of RNA template was reverse transcribed with a RETROscript kit (Ambion, Austin Tex.). PCR reactions were carried out with ExTaq Hot Start polymerase and reagents (Fisher Scientific, Pittsburgh Pa.). The AtproPep1 forward and reverse primers with the respective sequences of 5′ […] 3′ (SEQ ID NO: 59) and 5′ […] 3′ (SEQ ID NO: 60) generated a 310 bp intron-spanning product. Primers to β-tubulin (At5g62690) of 5′ […] 3′ (SEQ ID NO: 73) and 5′ […] 3′ (SEQ ID NO: 74) generated a 681 base pair intron-spanning product. An initial denaturing/polymerase activating step of 5 minutes at 94° C. was followed by 31 repetitions of the following three steps: a thirty second denaturation phase at 94° C., a thirty second annealing period at 55.5° C., and a one minute elongation step at 72° C. The amplification program was terminated with a 10 minute final 72° C. elongation phase.
Expression analysis of AtproPep1 in response to abiotic and biotic cues. As a first step in seeking a possible function for AtproPep1 and its encoded peptide, the basal expression level of the gene was assessed in leaves, stems, roots and flowers of Arabidopsis plants was studied using semi-quantitative RT-PCR analysis of AtproPep1 gene expression in response to treatment of leaves with MeJA, ethephon, MeSA, and AtPep1. The relative abundance of the proAtPep1 transcript was estimated from the expression of the β-tubulin gene as a control. Leaves were wounded by crushing once across the mid-vein with a hemostat. Plants were sprayed with a 250 μM solution of MeJA in 0.1% Triton X-100; with a […] solution of MeSA in 0.1% Triton X-100 or with a 7 mM solution of ethephon in 0.1% Triton X-100. […] Total RNA was extracted and analyzed.

OsPEPR1 = assay: Medium alkalinization of transgenic tobacco cells expressing OsPEPR1; assay type: cell-based, rice; details: for EC50: read-out: half-maximal activity
Text: We identified rice homologues of AtPEPR1 in the Rice Annotation Project database (see the website located at www.rapdb.dna.affrc.go.jp). The rice homologues, OsPEPR1 (Os08g0446200) and OsPEPR2 (Os08g0446400), have 60% and 62% amino acid similarities, respectively. The OsPEPR1 has 26 LRRs in the extracellular region, which is the same as AtPEPR1. The OsPEPR2 has a shorter extracellular region with 22 LRRs. Transgenic tobacco cells expressing either OsPEPR1 or OsPEPR2 were created to examine the possibility of receptor binding to monocot peptides. OsPep3a, OsPep3b, OsPep3c, ZmPep1 and ZmPep4a were supplied to suspension cultured transgenic tobacco cells, and medium pH was measured. OsPep3a, OsPep3b, ZmPep1 and ZmPep4a caused medium alkalinization in OsPEPR1 expressing cells with a 1.2 pH unit increase and a half-maximal activity of 0.25 nM.

Chain of OsPEPR1 (as listed by the source): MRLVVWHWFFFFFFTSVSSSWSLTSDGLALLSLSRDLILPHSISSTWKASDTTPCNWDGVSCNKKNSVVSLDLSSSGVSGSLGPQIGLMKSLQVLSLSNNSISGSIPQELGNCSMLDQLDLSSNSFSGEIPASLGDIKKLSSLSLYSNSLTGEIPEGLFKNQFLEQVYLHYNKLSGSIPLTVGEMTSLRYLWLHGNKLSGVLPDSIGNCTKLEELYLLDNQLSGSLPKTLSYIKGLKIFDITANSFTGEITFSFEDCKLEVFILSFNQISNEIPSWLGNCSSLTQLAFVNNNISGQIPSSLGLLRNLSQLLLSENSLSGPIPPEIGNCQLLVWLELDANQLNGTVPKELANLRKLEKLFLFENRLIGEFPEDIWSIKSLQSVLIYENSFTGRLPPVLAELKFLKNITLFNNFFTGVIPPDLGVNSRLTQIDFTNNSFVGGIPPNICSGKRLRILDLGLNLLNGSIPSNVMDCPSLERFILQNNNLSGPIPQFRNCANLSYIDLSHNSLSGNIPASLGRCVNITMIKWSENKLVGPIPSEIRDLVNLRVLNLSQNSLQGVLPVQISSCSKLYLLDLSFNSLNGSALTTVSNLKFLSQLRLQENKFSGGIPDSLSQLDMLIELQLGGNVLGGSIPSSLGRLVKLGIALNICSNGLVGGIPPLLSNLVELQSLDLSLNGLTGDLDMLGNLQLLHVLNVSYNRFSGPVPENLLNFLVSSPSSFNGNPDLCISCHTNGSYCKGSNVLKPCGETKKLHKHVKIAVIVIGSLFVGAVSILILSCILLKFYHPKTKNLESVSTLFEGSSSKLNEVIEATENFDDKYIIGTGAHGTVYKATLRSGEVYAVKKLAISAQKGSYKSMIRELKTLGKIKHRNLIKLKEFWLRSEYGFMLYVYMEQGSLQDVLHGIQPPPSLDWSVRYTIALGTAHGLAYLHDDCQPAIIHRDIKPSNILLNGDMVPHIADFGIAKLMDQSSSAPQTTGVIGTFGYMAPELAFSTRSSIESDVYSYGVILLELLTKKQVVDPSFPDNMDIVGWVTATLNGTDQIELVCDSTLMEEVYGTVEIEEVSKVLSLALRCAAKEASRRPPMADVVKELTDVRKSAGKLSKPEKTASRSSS

15-mer RGKEKVSSGRPGQHN with Gly at position 9 replaced by Ala; inactive derivative of AtPep1 [Gly to Ala substitution at position 9]
competition with the non-substituted 15-mer for receptor binding [1]: neither of these analogs were able to compete | activity in the alkalinization assay [2]: little activity | EC50 ([2]; read-out: half-maximal activity in the alkalinization assay): > 250 nM | Pst DC3000 growth in leaves after pre-infiltration [3]: not observed

COC(=O)c1ccccc1O [MeSA, methyl salicylate, reference compound]
expression of AtproPep1 paralogs after spraying ([4]; At5g64905, At5g64900, At5g64890, At5g09980): strongly induced only two of the genes

O=P(O)(O)CCCl [ethephon]
expression of the AtproPep1 gene in intact plants ([4]; sprayed: MeJA 250 μM, ethephon 7 mM, within an hour): induced a strong expression

RRPTPPGGAGPREGSGGRGGVIH [OsPep3b, RRPTPPGGAGPREGSGGRGGVIH]
medium pH increase (OsPEPR1): 1.2 pH unit | EC50 (OsPEPR1): 0.25 nM

VRRRPTTPGRPREGSGGNGGNHH [ZmPep1, VRRRPTTPGRPREGSGGNGGNHH]
medium pH increase (OsPEPR1): 1.2 pH unit | EC50 (OsPEPR1): 0.25 nM
